Measurements taken from US20130137767A1, “Methods and Compositions for Treating Arthritis with Docosahexaenoic Acid” (DSM IP ASSETS B.V., priority 2010, published 2013).

Experiments:
[1] = system: Collagen-Induced Arthritis (CIA); experiment: Collagen-Induced Arthritis, ethyl esters (CIA-EE, Example 1): clinical arthritis severity and incidence; format: in vivo, Male DBA/1O1aHsd mice; conditions: for incidence of disease (clinical arthritis score greater than 0): day 45; for arthritis severity score as area under the curve (AUC): days 18-45, FIG. 2
Source text: The anti-arthritic activity of DHA, DPAn6, DHA/DPAn6 (DHA S-oil ratio) and DHA/EPA (fish oil ratio) ethyl esters (EE) in a chronic mouse model of inflammation, Collagen-Induced Arthritis (CIA), was studied.
(§1) Male DBA/1O1aHsd mice (3.5-4 weeks of age) were randomized by weight and enrolled in the study after a three day quarantine in which animals were fed the AlN-93G diet with a modified base fat: 1 part flax seed oil (flax), 9 parts hydrogenated coconut oil (HCOC) and 21 parts high-oleic safflower oil (HO-SAFF). 15 animals were enrolled per study group, with the exception of the No Disease control that had 4 animals. Study groups consisted of:
(§2) The appropriate ethyl esters were blended into the base diet to provide approximately 2500 and 5000 mg/kg polyunsaturated fatty acid (PUFA) per day. The human equivalent doses (HED) were approximately 12 g/day and 22 g/day, respectively. The 2500 mg/kg EE diets contained the following fat blend: 1 part flax, 12 parts HCOC and 23 parts HO-SAFF. The 5000 mg/kg EE diets contained a fat blend consisting of: 1 part flax, 5 parts HCOC and 20 parts HO-SAFF. All study diets provided a total of 7% fat. Animals were fed study diets for approximately 30 days prior to the first collagen injection at day 0 and remained on the diets until study termination (day 45). Animals in the No Disease control and Dexamethasone groups were fed the diet containing OA-EE. Following a second collagen injection on day 21, arthritis severity was scored daily. Blood samples were collected at day 21 and day 45. Joints, 6 per an animal, were collected for histology and pathology on day 45.
Data was analyzed and compared by one-way ANOVA using the Bonferroni post-test to compare treatment groups to respective placebo control and to make comparisons between treatment groups (GraphPad, Prism, Version 4.0). Effects were considered to be statistically significant at p<0.05.
Arthritis severity was assessed from day 18 to 45; a score of 0 represented an animal devoid of clinical arthritis symptoms and a score of 5 represented advanced clinical arthritis. Scores from 0-5 (most severe) were assigned to each digit on the fore and hind limbs based on erythema, swelling and mobility and the mean arthritis severity per animal was determined.
The incidence of disease was reduced in animals treated with DHA-EE (FIG. 3A/B). A clinical arthritis score greater than 0 was considered diseased. The incidence of disease at day 45 was 13% in animals treated with 2500 mg/kg DHA-EE, as compared to 100% disease incidence in OA-EE (placebo) control animals.

[2] = system: Collagen-Induced Arthritis (CIA); experiment: CIA-EE (Example 1): paw, knee and six-joint histopathology; format: in vivo, Male DBA/1O1aHsd mice; conditions: day 45, vs OA-EE placebo, FIG. 4
Source text: as §1, §2
Placebo-treated diseased animals had histopathology changes, consistent with those seen in type II collagen induced arthritis, in most joints, with scores ranging from normal to severe. Microscopic alteration included infiltration of synovium and periarticular tissue with neutrophils and mononuclear inflammatory cells (inflammation), marginal zone pannus and bone resorption and cartilage damage (proteoglycan loss, chondrocyte death and collagen matrix destruction). Four-paw, knee and joint parameters were assigned a quantitative score 0=normal, 1=minimal, 2=mild, 3=moderate, 4=marked, 5=severe and a total score was determined per animal.

SMILES: C[C@@H]1C[C@H]2[C@@H]3CCC4=CC(=O)C=C[C@]4(C)[C@@]3(F)[C@@H](O)C[C@]2(C)[C@@]1(O)C(=O)CO [Dexamethasone, reference compound]
- incidence of disease (clinical arthritis score greater than 0) ([1]; positive control, 0.1 mg/kg): 60%

SMILES: CCCCC/C=C\C/C=C\C/C=C\C/C=C\C/C=C\CCC(=O)OCC [DPAn6-EE, reference compound]
- arthritis severity score as area under the curve (AUC) ([1]; 2500 mg/kg, vs 2500 mg/kg OA-EE (placebo) control): did not reduce arthritis
- arthritis severity score as area under the curve (AUC) ([1]; 5000 mg/kg, vs 5000 mg/kg OA-EE (placebo) control): did not reduce arthritis
- incidence of disease (clinical arthritis score greater than 0) ([1]; 2500 mg/kg, FIG. 3A): 100%
- knee histopathology parameters ([2]; 2500 mg/kg): did not significantly improve
- paw histopathology parameters (inflammation, pannus, cartilage damage, bone damage) ([2]; 2500 mg/kg): did not significantly affect
- knee histopathology parameters ([2]; 5000 mg/kg): did not significantly improve
- paw histopathology parameters (inflammation, pannus, cartilage damage, bone damage) ([2]; 5000 mg/kg): did not significantly affect
